# Measurements taken from US11597708B2, “Inhibitors of heat shock factors and uses thereof” (HSF Pharmaceuticals SA, priority 2016, dated 2023).
# Like-named read-outs stand apart in the source and are kept apart here.
# Target: T1, HSF1 (Homo sapiens, UniProt Q00613)
# T1 construct: functionally linked to an hsp70b promoter and therefore controlled by endogenous HSF1; endogenous in cells; host or cells: HeLa cells / HeLa-derived cell line Z74
# T1 sequence (Q00613 1-529): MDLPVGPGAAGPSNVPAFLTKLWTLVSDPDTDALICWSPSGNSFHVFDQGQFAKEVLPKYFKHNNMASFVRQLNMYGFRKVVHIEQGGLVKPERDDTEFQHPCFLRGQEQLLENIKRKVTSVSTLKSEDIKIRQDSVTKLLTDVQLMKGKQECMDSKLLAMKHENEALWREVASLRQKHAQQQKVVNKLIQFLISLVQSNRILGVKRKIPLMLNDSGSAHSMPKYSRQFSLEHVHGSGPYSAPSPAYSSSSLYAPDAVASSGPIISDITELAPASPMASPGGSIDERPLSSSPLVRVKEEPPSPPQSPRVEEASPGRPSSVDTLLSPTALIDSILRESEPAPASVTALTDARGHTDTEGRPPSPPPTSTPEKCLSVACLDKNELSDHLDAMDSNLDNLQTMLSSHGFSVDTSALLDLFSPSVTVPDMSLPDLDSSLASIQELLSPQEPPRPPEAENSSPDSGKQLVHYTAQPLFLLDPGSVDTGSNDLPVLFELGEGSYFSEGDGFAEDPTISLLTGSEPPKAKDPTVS
# Assay: Z74 cell-based reporter assay: heat-induced RLuc expression controlled by endogenous HSF1
# Details: for IC50: inhibition of HSF1 activity [RLuc]; for inhibition at 12.5 µM: 12.5 μM IHSF, negative values marked *: compound enhanced rLuc activity, read-out: Inhibition of HSF1 activity at 12.5 μM IHSF [RLuc] (%)
# Outline: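 HeLa-derived Z74 cells carry LexA-HSF1-driven firefly luciferase and hsp70b promoter-driven Renilla luciferase, the latter under endogenous HSF1. Cells were treated with compound at 12.5 or 25 μM for 2 h, heated to 43.0 °C for 30 min, then kept 6 h at 37 °C. Both luciferases were read by dual-luciferase luminescence.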
# [1] = Z74 cells, 25 μM IHSF, 2 h exposure, 43° C. 30 min, 6 h at 37° C., read-out: Inhibition of HSF1 activity at 25 μM IHSF [RLuc] (%)
Compound,"inhibition at 25 µM (IHSF 001 tested at 25 μM, Experiment No. 1, read-out: Inhibition of HSF1 activity [RLuc] (%))","inhibition at 25 µM (IHSF 001 tested at 25 μM, Experiment No. 2, read-out: Inhibition of HSF1 activity [RLuc] (%))","inhibition at 25 µM (IHSF 001 tested at 25 μM, Experiment No. 3, read-out: Inhibition of HSF1 activity [RLuc] (%))","inhibition at 25 µM (IHSF 001 tested at 25 μM, Experiment No. 4, read-out: Inhibition of HSF1 activity [RLuc] (%))","inhibition at 25 µM (IHSF 001 tested at 25 μM, Experiment No. 5, read-out: Inhibition of HSF1 activity [RLuc] (%))","inhibition at 25 µM (IHSF 001 tested at 25 μM, Experiment No. 6, read-out: Inhibition of HSF1 activity [RLuc] (%))","inhibition at 25 µM (IHSF 001 tested at 25 μM, Experiment No. 7, read-out: Inhibition of HSF1 activity [RLuc] (%))","inhibition at 25 µM (IHSF 001 tested at 25 μM, Experiment No. 8, read-out: Inhibition of HSF1 activity [RLuc] (%))","inhibition at 25 µM (IHSF 001 tested at 25 μM, Experiment No. 9, read-out: Inhibition of HSF1 activity [RLuc] (%))",IC50 (Z74 cells),inhibition at 12.5 µM (Z74 cells),inhibition at 25 µM [1],activity in the Z74-based screening assay (most potent IHSF)
"CCOC(=O)/C=C/C(=O)Nc1nccs1 [IHSF 001, (E)-ethyl 4-oxo-4-(thiazol-2-ylamino)but-2-enoate]",66%,69%,69%,67%,68%,63%,56%,51%,45%,17.8 µM,37%,64%,–
"CCOC(=O)/C=C/C(=O)Nc1ncc(-c2cccnc2)s1 [IHSF 058, (E)-3-(5-Pyridm-3-yl-thiazol-2-ylcarbamoyl)-acrylic acid ethyl ester]",–,–,–,–,–,–,–,–,–,4.8 µM,79%,97%,–
"CN(C(=O)/C=C/C1=NCCCO1)c1ncc(-c2cccnc2)s1 [IHSF 115, (E)-3-(5,6-Dihydro-4H-[1,3]oxazin-2-yl)-N-methyl-N-(5-pyridin-3-yl-thiazol-2-yl)-acrylamide]",–,–,–,–,–,–,–,–,–,0.7 µM,99%,100%,substantial activity in the high nanomolar range
